# Experimental data: ChEMBL document CHEMBL1151621, “Correlation of the anticholinesterase and molluscicidal activity of the latex of Euphorbia royleana on the snail Lymnaea acuminata” (1984)
# Columns and labels:
# Lymnaea [1] = assay: Inhibition of acetylcholinesterase from nerve tissue of Lymnaea acuminata at 0.23 ug w/v relative to control; parameters: scale not given: the % may be the effect or the level left
# Lymnaea [2] = assay: In vivo inhibition of acetylcholinesterase from nerve tissue of Lymnaea acuminata at 14 mg/L relative to control; format: functional; parameters: scale not given: the % may be the effect or the level left
# Lymnaea [3] = assay: Inhibition of acetylcholinesterase from nerve tissue of Lymnaea acuminata at 2 ug w/v relative to control; parameters: scale not given: the % may be the effect or the level left
# Lymnaea [4] = assay: In vivo inhibition of acetylcholinesterase from nerve tissue of Lymnaea acuminata at 27 mg/L relative to control; format: functional; parameters: scale not given: the % may be the effect or the level left
# Lymnaea [5] = assay: Inhibition of acetylcholinesterase from nerve tissue of Lymnaea acuminata at 0.75 ug w/v relative to control; parameters: scale not given: the % may be the effect or the level left
# Lymnaea [6] = assay: Inhibition of acetylcholinesterase from nerve tissue of Lymnaea acuminata at 1 ug w/v relative to control; parameters: scale not given: the % may be the effect or the level left
# Lymnaea [7] = assay: In vivo inhibition of acetylcholinesterase from nerve tissue of Lymnaea acuminata at 2.5 mg/L relative to control; format: functional; parameters: scale not given: the % may be the effect or the level left
# Lymnaea [8] = assay: Molluscicidal activity against Lymnaea acuminata within 24 hrs; format: functional
# Lymnaea [9] = assay: In vivo inhibition of acetylcholinesterase from nerve tissue of Lymnaea acuminata at 30 mg/l relative to control; format: functional; parameters: scale not given: the % may be the effect or the level left
# Lymnaea [10] = assay: Inhibition of acetylcholinesterase from nerve tissue of Lymnaea acuminata at 0.5 ug w/v relative to control; parameters: scale not given: the % may be the effect or the level left
structure (smiles),measurement,setting,value
CNC(=O)Oc1ccc2c(c1)[C@]1(C)CCN(C)[C@@H]1N2C,Activity,Lymnaea [1],13%
CNC(=O)Oc1cccc2ccccc12 [CARBARIL],Activity,Lymnaea [2],73%
same,Activity,Lymnaea [3],67%
COP(=S)(OC)SCC(=O)N(C)C=O [FORMOTHION],Activity,Lymnaea [4],79%
same,Activity,Lymnaea [5],47%
CNC(=O)Oc1cc(C)c(N(C)C)c(C)c1 [MEXACARBATE],Activity,Lymnaea [6],39%
same,Activity,Lymnaea [7],53%
O=C(Nc1ccc([N+](=O)[O-])cc1Cl)c1cc(Cl)ccc1O [NICLOSAMIDE],Activity,Lymnaea [8],63%
CCOP(=S)(OCC)SCSCC [PHORATE],Activity,Lymnaea [9],67%
same,Activity,Lymnaea [10],42%
